Biological target: human full-length BTK Kinase (Homo sapiens (Human), UniProt Q06187)
Test: Human BTK LanthaScreen Assay (TR-FRET)
Format: biochemical
Conditions: 50 μM ATP, FAM-Srctide peptide substrate, read-out: BTK Inhibition IC50
Source text: Human BTK LanthaScreen Assay

Sequence of human full-length BTK Kinase (Q06187 whole entry): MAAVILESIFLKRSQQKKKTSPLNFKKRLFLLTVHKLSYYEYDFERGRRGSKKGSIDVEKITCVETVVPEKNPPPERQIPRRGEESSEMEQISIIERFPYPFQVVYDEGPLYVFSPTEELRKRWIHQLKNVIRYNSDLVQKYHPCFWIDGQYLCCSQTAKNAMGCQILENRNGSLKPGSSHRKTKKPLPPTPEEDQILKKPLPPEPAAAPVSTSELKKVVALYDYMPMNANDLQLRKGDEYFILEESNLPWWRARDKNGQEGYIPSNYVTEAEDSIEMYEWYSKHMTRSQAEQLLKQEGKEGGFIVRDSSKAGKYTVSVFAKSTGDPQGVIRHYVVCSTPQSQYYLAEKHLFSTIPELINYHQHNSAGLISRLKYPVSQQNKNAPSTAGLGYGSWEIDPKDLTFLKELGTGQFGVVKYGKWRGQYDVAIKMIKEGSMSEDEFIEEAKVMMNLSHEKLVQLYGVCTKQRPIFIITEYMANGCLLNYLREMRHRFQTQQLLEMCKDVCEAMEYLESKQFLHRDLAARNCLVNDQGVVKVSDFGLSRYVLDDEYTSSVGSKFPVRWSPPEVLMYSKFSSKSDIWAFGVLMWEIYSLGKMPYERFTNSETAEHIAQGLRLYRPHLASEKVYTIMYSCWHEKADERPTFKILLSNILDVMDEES

| SMILES | IC50 |
| --- | --- |
| N#CN1CCCC(n2nc(-c3ccc(Oc4cc(F)ccc4Cl)cc3)c(C(N)=O)c2N)C1 (stereo not shown) [Example 45, 5-amino-3-[4-(2-chloro-5-fluoro-phenoxy)phenyl]-1-(1-cyanopiperidin-3-yl)-1H-pyrazole-4-carboxamide] | 0.81 nM |
| N#CN1CCCC(n2nc(-c3ccc(Oc4ccc(F)c(OC(F)(F)F)c4)cc3)c(C(N)=O)c2N)C1 (stereo not shown) [Example 46, 5-amino-1-(1-cyanopiperidin-3-yl)-3-{4-[4-fluoro-3-(trifluoromethoxy)-phenoxy]phenyl}-1H-pyrazole-4-carboxamide] | 6.4 nM |
| COc1cc(F)ccc1Oc1ccc(-c2nn(C3CCCN(C#N)C3)c(N)c2C(N)=O)cc1 (stereo not shown) [Example 47, 5-amino-1-(1-cyanopiperidin-3-yl)-3-{4-[4-fluoro-2-methoxyphenoxy]phenyl}-1H-pyrazole-4-carboxamide] | 1.6 nM |
| COc1cccc(Oc2ccc(-c3nn(C4CCCN(C#N)C4)c(N)c3C(N)=O)cc2)c1 (stereo not shown) [Example 48, 5-amino-1-(1-cyanopiperidin-3-yl)-3-[4-(3-methoxyphenoxy)phenyl]-1H-pyrazole-4-carboxamide] | 0.44 nM |
| N#CN1CCCC(n2nc(-c3ccc(Oc4cc(Cl)ccc4F)cc3)c(C(N)=O)c2N)C1 (stereo not shown) [Example 49, 5-amino-3-[4-(5-chloro-2-fluorophenoxy)phenyl]-1-(1-cyanopiperidin-3-yl)-1H-pyrazole-4-carboxamide] | 2.2 nM |
| N#CN1CCCC(n2nc(-c3ccc(Oc4ccc(Cl)cc4Cl)cc3)c(C(N)=O)c2N)C1 (stereo not shown) [Example 50, 5-amino-1-(1-cyanopiperidin-3-yl)-3-[4-(2,4-dichlorophenoxy)phenyl]-1H-pyrazole-4-carboxamide] | 1.8 nM |
| N#CN1CCCC(n2nc(-c3ccc(Oc4cc(F)cc(Cl)c4)cc3)c(C(N)=O)c2N)C1 (stereo not shown) [Example 51, 5-amino-3-[4-(3-chloro-5-fluoro-phenoxy)phenyl]-1-(1-cyanopiperidin-3-yl)-1H-pyrazole-4-carboxamide] | 1.9 nM |
| N#CN1CCCC(n2nc(-c3ccc(Oc4ccccc4C(F)(F)F)cc3)c(C(N)=O)c2N)C1 (stereo not shown) [Example 52, 5-amino-1-(1-cyanopiperidin-3-yl)-3-{4-[2-(trifluoromethyl)phenoxy]-phenyl}-1H-pyrazole-4-carboxamide] | 2.9 nM |
| N#CN1CCCC(n2nc(-c3ccc(Oc4cccc(Cl)c4)cc3)c(C(N)=O)c2N)C1 (stereo not shown) [Example 53, 5-amino-3-[4-(3-chlorophenoxy)-phenyl]-1-(1-cyanopiperidin-3-yl)-1H-pyrazole-4-carboxamide] | 1.7 nM |
| Cc1c(F)cccc1Oc1ccc(-c2nn(C3CCCN(C#N)C3)c(N)c2C(N)=O)cc1 (stereo not shown) [Example 54, 5-amino-1-(1-cyanopiperidin-3-yl)-3-[4-(3-fluoro-2-methylphenoxy)phenyl]-1H-pyrazole-4-carboxamide] | 1.2 nM |
| N#CN1CCCC(n2nc(-c3ccc(Oc4cc(Cl)ccc4Cl)cc3)c(C(N)=O)c2N)C1 (stereo not shown) [Example 55, 5-amino-1-(1-cyanopiperidin-3-yl)-3-[4-(2,5-dichlorophenoxy)phenyl]-1H-pyrazole-4-carboxamide] | 2.2 nM |
| N#CN1CCCC(n2nc(-c3ccc(Oc4ccccc4Cl)cc3)c(C(N)=O)c2N)C1 (stereo not shown) [Example 56, 5-amino-3-[4-(2-chlorophenoxy)-phenyl]-1-(1-cyanopiperidin-3-yl)-1H-pyrazole-4-carboxamide] | 1.3 nM |
| N#CN1CCCC(n2nc(-c3ccc(Oc4cccc(Cl)c4F)cc3)c(C(N)=O)c2N)C1 (stereo not shown) [Example 57, 5-amino-3-[4-(3-chloro-2-fluoro-phenoxy)phenyl]-1-(1-cyanopiperidin-3-yl)-1H-pyrazole-4-carboxamide] | 3.1 nM |
| N#CN1CCCC(n2nc(-c3ccc(Oc4ccc(F)c(Cl)c4)cc3)c(C(N)=O)c2N)C1 (stereo not shown) [Example 58, 5-amino-3-[4-(3-chloro-4-fluoro-phenoxy)phenyl]-1-(1-cyanopiperidin-3-yl)-1H-pyrazole-4-carboxamide] | 1.8 nM |
| N#CN1CCCC(n2nc(-c3ccc(Oc4cc(F)c(F)cc4F)cc3)c(C(N)=O)c2N)C1 (stereo not shown) [Example 59, 5-amino-1-(1-cyanopiperidin-3-yl)-3-[4-(2,4,5-trifluorophenoxy)phenyl]-1H-pyrazole-4-carboxamide] | 8.5 nM |
| N#CN1CCCC(n2nc(-c3ccc(Oc4cc(Cl)cc(Cl)c4)cc3)c(C(N)=O)c2N)C1 (stereo not shown) [Example 60, 5-amino-1-(1-cyanopiperidin-3-yl)-3-[4-(3,5-dichlorophenoxy)phenyl]-1H-pyrazole-4-carboxamide] | 4.8 nM |
| N#CN1CCCC(n2nc(-c3ccc(Oc4ccc(F)c(F)c4F)cc3)c(C(N)=O)c2N)C1 (stereo not shown) [Example 61, 5-amino-1-(1-cyanopiperidin-3-yl)-3-[4-(2,3,4-trifluorophenoxy)phenyl]-1H-pyrazole-4-carboxamide] | 5.1 nM |
| N#CN1CCCC(n2nc(-c3ccc(Oc4ccccc4OC(F)(F)F)cc3)c(C(N)=O)c2N)C1 (stereo not shown) [Example 62, 5-amino-1-(1-cyanopiperidin-3-yl)-3-{4-[2-(trifluoromethoxy)phenoxy]phenyl}-1H-pyrazole-4-carboxamide] | 3.3 nM |
| N#CN1CCCC(n2nc(-c3ccc(Oc4c(F)cccc4Cl)cc3)c(C(N)=O)c2N)C1 (stereo not shown) [Example 63, 5-amino-3-[4-(2-chloro-6-fluoro-phenoxy)phenyl]-1-(1-cyanopiperidin-3-yl)-1H-pyrazole-4-carboxamide] | 4.9 nM |

| SMILES | IC50 |
| --- | --- |
| N#CN1CCCC(n2nc(-c3ccc(Oc4ccc(F)c(C(F)(F)F)c4)cc3)c(C(N)=O)c2N)C1 (stereo not shown) [Example 64, 5-amino-1-(1-cyanopiperidin-3-yl)-3-{4-[4-fluoro-3-(trifluoromethyl)phenoxy]phenyl}-1H-pyrazole-4-carboxamide] | 8.7 nM |
| COc1ccccc1Oc1ccc(-c2nn(C3CCCN(C#N)C3)c(N)c2C(N)=O)cc1 (stereo not shown) [Example 65, 5-amino-1-(1-cyanopiperidin-3-yl)-3-[4-(2-methoxyphenoxy)phenyl]-1H-pyrazole-4-carboxamide] | 10.6 nM |
| N#CN1CCCC(n2nc(-c3ccc(Oc4cc(F)cc(F)c4)cc3)c(C(N)=O)c2N)C1 (stereo not shown) [Example 66, 5-amino-1-(1-cyanopiperidin-3-yl)-3-[4-(3,5-difluorophenoxy)phenyl]-1H-pyrazole-4-carboxamide] | 7.2 nM |
| N#CN1CCCC(n2nc(-c3ccc(Cc4ccccc4)cc3)c(C(N)=O)c2N)C1 (stereo not shown) [Example 67] | 2.4 nM |
| Cc1cccc(Cc2ccc(-c3nn(C4CCCN(C#N)C4)c(N)c3C(N)=O)cc2)c1 (stereo not shown) [Example 68, 5-amino-1-(1-cyanopiperidin-3-yl)-3-[4-(3-methylbenzyl)phenyl]-1H-pyrazole-4-carboxamide] | 1.9 nM |
| Cc1cccc(Cc2ccc(-c3nn([C@@H]4CCCN(C#N)C4)c(N)c3C(N)=O)cc2)c1 [Example 69, (R)-5-amino-1-(1-cyanopiperidin-3-yl)-3-(4-(3-methylbenzyl)phenyl)-1H-pyrazole-4-carboxamide] | 0.6 nM |
| Cc1cccc(Cc2ccc(-c3nn([C@H]4CCCN(C#N)C4)c(N)c3C(N)=O)cc2)c1 [Example 70, (S)-5-amino-1-(1-cyanopiperidin-3-yl)-3-(4-(3-methylbenzyl)phenyl)-1H-pyrazole-4-carboxamide] | 21.9 nM |
| N#CN1CCCC(n2nc(-c3ccc(Cc4ccccc4Cl)cc3)c(C(N)=O)c2N)C1 (stereo not shown) [Example 71, 5-amino-3-(4-(2-chlorobenzyl)phenyl)-1-(1-cyanopiperidin-3-yl)-1H-pyrazole-4-carboxamide] | 2.7 nM |
| N#CN1CCC[C@@H](n2nc(-c3ccc(Cc4ccccc4Cl)cc3)c(C(N)=O)c2N)C1 [Example 72, (R)-5-amino-3-(4-(2-chlorobenzyl)phenyl)-1-(1-cyanopiperidin-3-yl)-1H-pyrazole-4-carboxamide] | 0.54 nM |
| N#CN1CCC[C@H](n2nc(-c3ccc(Cc4ccccc4Cl)cc3)c(C(N)=O)c2N)C1 [Example 73, (S)-5-amino-3-(4-(2-chlorobenzyl)phenyl)-1-(1-cyanopiperidin-3-yl)-1H-pyrazole-4-carboxamide] | 6.1 nM |
| N#CN1CCCC(n2nc(-c3ccc(Cc4ccccc4F)cc3)c(C(N)=O)c2N)C1 (stereo not shown) [Example 74, 5-amino-1-(1-cyanopiperidn-3-yl)-3-[4-(2-fluorobenzyl)phenyl]-1H-pyrazole-4-carboxamide] | 1 nM |
| N#CN1CCC[C@H](n2nc(-c3ccc(Cc4ccccc4F)cc3)c(C(N)=O)c2N)C1 [Example 76, (S)-5-amino-1-(1-cyanopiperidin-3-yl)-3-(4-(2-fluorobenzyl)phenyl)-1H-pyrazole-4-carboxamide] | 12 nM |
| N#CN1CCCC(n2nc(-c3ccc(Cc4cccc(F)c4)cc3)c(C(N)=O)c2N)C1 (stereo not shown) [Example 77, 5-amino-1-(1-cyanopiperidin-3-yl)-3-[4-(3-fluorobenzyl)phenyl]-1H-pyrazole-4-carboxamide] | 2.3 nM |
| N#CN1CCCC(n2nc(-c3ccc(Cc4ccc(F)cc4F)cc3)c(C(N)=O)c2N)C1 (stereo not shown) [Example 80, 5-amino-1-(1-cyanopiperidin-3-yl)-3-[4-(2,4-difluorobenzyl)phenyl]-1H-pyrazole-4-carboxamide] | 15.6 nM |
| N#CN1CCCC(n2nc(-c3ccc(Cc4ccc(F)c(F)c4)cc3)c(C(N)=O)c2N)C1 (stereo not shown) [Example 83, 5-amino-1-(1-cyanopiperidin-3-yl)-3-[4-(3,4-difluorobenzyl)phenyl]-1H-pyrazole-4-carboxamide] | 15.3 nM |
| N#CN1CCCC(n2nc(-c3ccc(Cc4ccc(Cl)cc4)cc3)c(C(N)=O)c2N)C1 (stereo not shown) [Example 86, 5-amino-3-[4-(4-chlorobenzyl)phenyl]-(1-cyanopiperidin-3-yl)-1H-pyrazole-4-carboxamide] | 26.8 nM |
| N#CN1CCCC(n2nc(-c3ccc(C(=O)c4ccccc4)cc3)c(C(N)=O)c2N)C1 (stereo not shown) [Example 87, 5-Amino-3-(4-benzoyl-phenyl)-1-(1-cyano)-piperidin-3-yl-1H-pyrazole-4-carboxylic acid amide] | 1.3 nM |
| N#CN1CCCC(n2nc(-c3ccc(C(O)c4ccccc4)cc3)c(C(N)=O)c2N)C1 (stereo not shown) [Example 88, 5-amino-1-(1-cyanopiperidin-3-yl)-3-{4-[hydroxy(phenyl)methyl]phenyl}-1H-pyrazole-4-carboxamide] | 5.7 nM |
